The source of these data is patent publication US20110306035A1, “Methods and Compositions for Detection of a Pathogen, Disease, Medical Condition, or Biomarker Thereof” (priority 2008, published 2011).

Test [1] deals with Echovirus 3C recombinant protease (Echovirus 30, UniProt Q9WN78). In words: Echovirus 3C recombinant protease activity with inhibitors or inhibitor cocktails (Camb2). It counts as biochemical. The procedure:
Phosphoramidon is a strong inhibitor of many bacterial Metalloendoproteinases, thermolysin, and elastase, but a weak inhibitor of collagenase. […] Phosphoramidon was tested using the Echovirus 3C recombinant and pneumococcus (types 6B and 23F) spiking systems.
(§1) The experiment shown in FIG. 22A was performed in the presence of Echo recombinant protease (50 nM) or in the presence of two different strains of pneumococcus 6B and 23F (lysate 1 μl). The inhibitory effect was measured in the presence/absent of Phosphoramidon (20 uM).
The experiment shown in FIG. 22B was performed in the presence of Echo recombinant protease (1:18), in the presence of meningococcus (lysate 3 ul) or in the presence of blood (10 ul).
Enterovirus 3C protease (Echo), WBC lysate (corresponding to 2×10^3 cells per test), Pneomococc lysate (corresponding to 1×10^6 bacteria per test) and Meningococc lysate (corresponding to 1×10^8 bacteria per test) (5 ul each) were spiked into artificial-CSF (45 ul), followed by the addition of the indicated inhibitor cocktails (5 ul each): I8, I9a=I8+Phosphoramidon (90 μM), I9b=I8+2-6-pyridinedicarboxylic acid (2.5 mM) and I10=I8+Phosphoramidon+2-6-pyridinedicarboxylic acid. The samples with the indicated inhibitor cocktails were incubated at RT for 2.5 min followed by the addition of 50 ul 2× reaction buffer containing the substrate camb2 (final concentration 2 μM). […]

For another test, the system named is pneumococcus 6B. In words: Pneumococcus 6B lysate spiking system (Camb2 cleavage). It counts as biochemical, Streptococcus pneumonia.
Description: (§2) There have been no reports of co-infection of viral and bacterial meningitis. Thus, a test for viral meningitis infection implies a negative result for bacterial meningitis. However, CSF samples infected with bacterial meningitis may have background non-specific activity that leads to false positive results in tests for enterovirus, thereby confusing the results. Background non specific activity in CSF samples could be related to bacterial proteases that can cleave the substrate, leading to a positive signal. The most frequent bacterial meningitis found in CSF include: Streptococcus pneumonia, Neisseria meningitides (meningococc), Haemophilus influenza and Klebsiella pneumonia. Accordingly, Pneumococcus (Streptococcus pneumonia, two different strains 6B and 23F) and meningococcus (Neisseria meningitides) were spiked to simulate the background non specific activity observed in CSF samples and to identify inhibitors to reduce it. A total of more than 40 inhibitors from different groups of inhibitors were tested.
as §1

The next test has as its system pneumococcus 23F. In words: Pneumococcus 23F lysate spiking system (Camb2 cleavage). It counts as biochemical, Streptococcus pneumonia.
Description: as §2, §1

For a further test, the system named is Enterovirus 3C protease. In words: Enterovirus assay in clinical CSF samples (vs RT-PCR). Type of test: biochemical. Particulars: bacterial samples 23-25; new assay conditions.
The test system of another test is meningococcus. Put plainly: Meningococcus lysate spiking system (Camb2 cleavage). Particulars: 2,6-pyridinedicarboxylic acid 2.5 mM; lysate 3 ul. Type of test: biochemical, Neisseria meningitides.
Description: as §2
The experiment shown in FIG. 22B was performed in the presence of Echo recombinant protease (1:18), in the presence of meningococcus (lysate 3 ul) or in the presence of blood (10 ul). […]

For a further test, the system named is blood. The conditions noted are these: 2,6-pyridinedicarboxylic acid 2.5 mM; blood 10 ul.
Where [2] appears, read: Phosphoramidon 20 uM, lysate 1 μl.
Setting [3] is: at least three independent experiments.

Chain of Echovirus 3C recombinant protease (Q9WN78 1550-1732): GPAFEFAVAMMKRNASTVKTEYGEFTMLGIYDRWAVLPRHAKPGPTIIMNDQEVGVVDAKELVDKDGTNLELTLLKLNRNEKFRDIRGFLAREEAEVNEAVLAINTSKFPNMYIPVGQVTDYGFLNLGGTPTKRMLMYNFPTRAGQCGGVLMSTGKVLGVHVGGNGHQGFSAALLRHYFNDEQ
Description for Enterovirus 3C protease: CSF samples obtained from two clinical sites, were tested for presence of enterovirus according to the method of the invention but before the assay conditions were optimized. The samples were also tested with a combination of RT-PCR and other clinical parameters. […] Samples were considered hemolytic if red blood cell (RBC) count was above 100/ul (for the one set) or if the sample's color was reddish (for the other set, RBC count not provided).
Samples whose reaction rate exceeded the cutoff value were considered positive, and those below this value were considered negative.
Each measurement was performed by using 50 uL of CSF sample. 5 ul of inhibitor cocktail (I8) was added to the samples and incubated for 2.5 min. The reaction was initiated by the addition of 50 uL 2× reaction buffer (“2× RB”, 50 mM HEPES pH7.5, 1.8M Na2SO4, 300 mM NaCl, 10% Glycerol, 10 mM EDTA and 10 mM EGTA each) containing the substrate camb2 (final concentration 2 uM).
Thaw samples at room temperature for 30 min in a biological hood. • 2. Prepare assay layout according to the number of samples to be run in the BMG fluorimeter and the well composition shown in Table 54
Prepare sufficient amount of inhibitor cocktail I10 (150 ul for 24 wells). • 4. […] Add Echo protease to p.c. (positive control) wells. • 6. […] Add inhibitor cocktail to all wells. • 8. Add 50 ul 2× RB+substrate to all the wells. • 9. […]

In general, inhibition refers to the drop in the measured response relative to a control, in per cent. Turning to `CC(C)C[C@H](NP(=O)(O)O[C@@H]1O[C@@H](C)[C@H](O)[C@@H](O)[C@H]1O)C(=O)N[C@@H](Cc1c[nH]c2ccccc12)C(=O)O` [Phosphoramidon], the inhibition at 20 µM in test [1] (Phosphoramidon 20 uM, Echo recombinant protease 50 nM) turned out to be 7%. The “inhibition of pneumococcus activity” value is listed as 91% with pneumococcus 6B (setting [2]), approximately 90% in the test with pneumococcus 6B (setting [3]), 80% with pneumococcus 23F (setting [2]) and approximately 90% with pneumococcus 23F (setting [3]). Moreover, the “effect on unspecific background activity of bacterial CSF samples” value in the test with Enterovirus 3C protease is reported as “could not abolish”.

With `O=C(O)c1cccc(C(=O)O)n1` [2,6-pyridinedicarboxylic acid], the inhibition at 2500 µM in test [1] came out at 4.5%. Moreover, the “inhibition of meningococcus activity” value in the test with meningococcus stood at 81%. In addition, the “inhibition of blood activity” value with blood worked out at 0%.
